Test results published in patent US20220387615A1, “COMPOSITIONS COMPRISING ENZYME CLEAVABLE LINKER PLATFORMS AND CONJUGATES THEREOF” (Danmarks Tekniske Universitet, priority 2019, published 2022).

Tests used:
amano lipase = assay: Cleavage by Amano lipase; type: biochemical, Pseudomonas fluorescens; conditions: phosphate buffer pH 5, 6 and 7.4; room temperature
Protocol: (§1) The above compound was dissolved in a minimum of DMSO and added to amano lipase in phosphate buffer solutions at pH 5, 6 and 7.4, respectively at room temperature. Aliquots were taken out at different time points and LC-MS and HPLC used for analysis. LCMS analysis required a small organic extraction of each aliquot in order to remove the protein prior to analysis. Analytical HPLC allowed direct injection and offers high sensitivity and reliability. Caffeine was included as an internal standard. The compound was almost fully hydrolysed at 5 min.

acid phosphatase = assay: Cleavage by acid phosphatase; type: biochemical; conditions: phosphate buffer pH 5, 6 and 7.4; room temperature
Protocol: as §1, with “acid phosphatase” for “amano lipase”, “1 hour.” for “5 min.”

[1] = tested on: Amano Lipase from Pseudomonas fluorescens; assay: Lipase test of linker X8: cleavage and model drug release; type: biochemical; conditions: for time to full conversion to X10 and X11: 1 mg/mL lipase, room temperature
Protocol: Compound X8 was exposed to lipase in phosphate buffered solutions at pH 6 and 7.4. […] The pH 6 and 7.4 tests were conducted to determine if any difference in the rate of intramolecular lactonisation would be observed. Initial tests involved incubation of the linker (1 mM in 2% DMSO/buffer) with 1 mg/mL lipase (>20 U/mL) at room temperature (FIG. 16). Caffeine was included as an internal standard. Aliquots were taken out at different time points and LC-MS and HPLC used for analysis.

Helix pomatia Type H-1 = assay: Cleavage by Helix pomatia Type H-1; type: biochemical; conditions: phosphate buffer pH 5, 6 and 7.4; room temperature
Protocol: as §1, with “Helix pomatia Type H-1” for “amano lipase”

## CCCCCCCC(=O)OCCNC(=O)c1ccccc1
Amano lipase
  time at which the compound was almost fully hydrolysed: 5 min

## O=C(NCCOP(=O)(O)O)c1ccccc1
Acid phosphatase
  time at which the compound was almost fully hydrolysed: 1 h

## CCCCCCCC(=O)OCCN(CC(=O)OCC(=O)c1ccc(Br)cc1)C(=O)c1ccccc1 [Example X8, 2-(N-(2-(2-(4-bromophenyl)-2-oxoethoxy)-2-oxoethyl)benzamido)ethyl octanoate]
[1]; FIG. 17, conditions not given
  non-linear conversion to products, duration: 114 min
[1]; pH 6
  time to full conversion to X10 and X11: 60 min
[1]; pH 7.4, linker 1 mM in 2% DMSO/buffer
  time to full conversion to X10 and X11: < 15 min

## O=C(NCCNC(=O)c1ccccc1)OCc1ccc(OS(=O)(=O)O)cc1
Helix pomatia Type H-1
  time at which the compound was almost fully hydrolysed: 5 min
